# Test results: ChEMBL document CHEMBL5150075 (J Med Chem, 2022)
# The source made the active and inactive calls. The rule behind the calls is not given here.
# Legend:
# [1] = system: NCI-H1299; experiment: Antitumor activity against human NCI-H1299 cells xenografted in BALB/c nude mouse assessed as suppression of tumor growth at 20 mg/kg, po administered once daily and measured twice a week relative to control; format: functional
# [2] = system: DU-145; experiment: Antiproliferative activity against human DU-145 cells assessed as inhibition of cell growth incubated for 72 hrs by MTT assay; format: functional, cell-based; conditions: DU-145, 72 h
# [3] = system: NCI-H1437; experiment: Antiproliferative activity against human NCI-H1437 cells assessed as inhibition of cell growth incubated for 72 hrs by MTT assay; format: functional, cell-based; conditions: NCI-H1437, 72 h
# [4] = system: DU-145; experiment: Induction of apoptosis in human DU-145 cells assessed as early apoptotic cells at 0.1 uM incubated for 48 hrs by Annexin V-FITC/PI staining based flow cytometry analysis (reference value: 1.97%); format: functional
# [5] = system: SW1990; experiment: Antiproliferative activity against human SW1990 cells assessed as inhibition of cell growth incubated for 72 hrs by MTT assay; format: functional, cell-based; conditions: SW1990, 72 h
# [6] = system: DU-145; experiment: Induction of apoptosis in human DU-145 cells assessed as increase in cleaved caspase 3 level at 0.003 to 0.3 uM incubated for 48 hrs by Western blot analysis; format: functional, cell-based; conditions: dose 0.003-0.3 µM
# [7] = system: NCI-H1299; experiment: Antiproliferative activity against human NCI-H1299 cells assessed as inhibition of cell growth incubated for 72 hrs by MTT assay; format: functional, cell-based; conditions: NCI-H1299, 72 h
# [8] = system: DU-145; experiment: Induction of G2/M phase cell cycle arrest in human DU-145 cells assessed as decrease in Cdc2 phosphorylation at T14/Y15 residue at 0.03 to 0.3 uM measured after 12 hrs by Western blot analysis; format: functional, cell-based; conditions: dose 0.03-0.3 µM
# [9] = molecular target: Tubulin (Homo sapiens) (UniProt P68371+Q9H4B7+P0DPH7+P68366+Q13509+Q71U36+P04350+Q3ZCM7+P07437+P68363+Q9BQE3+Q6PEY2+Q13885+Q9BVA1+Q9BUF5); experiment: Inhibition of [3H]colchicine binding to tubulin (unknown origin) at 1 uM incubated for 2 hrs by TopCount scintillation counting method relative to control; format: protein-complex assay
smiles,measurement,setting,value
Cc1ccc(S(=O)(=O)Nc2cc(C(=O)NCc3ccc(C)nc3)ccc2C)cc1,Activity,[1],73.6%
same,IC50,[2],8 nM
same,IC50,[3],2 nM
same,Activity,[4],24.79%
same,IC50,[5],15 nM
same,Activity,[6],Active
same,IC50,[7],4 nM
same,Activity,[8],Active
same,inhibition,[9],75%
